The results in this text go back to patent US20160075695A1, “BENZIMIDAZOLE DERIVATIVES AS BROMODOMAIN INHIBITORS” (Gilead Sciences, Inc., priority 2013, published 2016).

For test [1], the target named is T1, BRD4-1 (Homo sapiens, UniProt O60885).
T1 construct: made in house; host or cells: Escherichia coli
The test is described as follows: HTRF (TR-FRET) assay, BRD4-1 binding to acetylated histone H4 peptide. Here is the method:
(§1) Binding of the two tandem bromodomains, BRD4-1 and BRD4-2, to an acetylated histone H4 peptide was measured using a homogeneous time resolved fluorescence resonance energy transfer (TR-FRET) assay. […] BRD4-1 and BRD4-2 were expressed and purified from Escherichia coli as N-terminal His6-tagged proteins. An XL665 labeled anti-His antibody (Cisbio) was used to specifically bind BRD4 and a cryptate labeled streptavidin protein was used because it specifically recognized the biotinylated H4 peptide. […] After an assay reaction time of 60 minutes at 25° C., binding was measured with 2 nM crytptate labeled streptavidin and 10 nM anti-His-XL665 antibody. TR-FRET signal was detected on an Envision plate reader (Ex: 320 nm; Em: 615/665 nm; 100 us delay and 200 μs read window). […] All IC50 values represent geometric mean values of a minimum of four determinations.
(In TR-FRET formats the signal depends on donor and acceptor labels being close together.)

Test [2] deals with T1, BRD4-1. The test is described as follows: Alpha assay, BRD4-1 binding to acetylated histone H4 peptide. Here is the method: Binding of the bromodomain BRD4-I to an acetylated histone H4 peptide was measured using a bead-based Amplified Luminescent Proximity Homogeneous Assay (ALPHA). […] BRD4-I was expressed and purified from Escherichia coli as an N-terminal His6-tagged protein. Nickel-Chelate ALPHA acceptor beads (Perkin Elmer) were used to specifically bind BRD4-1 and ALPHA streptavidin donor beads (Perkin Elmer) were used because they specifically recognized the biotinylated H4 peptide. […] Assays were performed in 50 mM Hepes (pH 7.5), 150 mM NaCl, 0.1 mg/ml BSA, 0.01% (v/v) Brij, 0.5% (v/v) DMSO, 200 nM H4 peptide and 15 nM of BRD4-1 protein. After an assay reaction time of 60 minutes at 25° C., binding was measured with 20 μg/ml streptavidin donor beads and 20 μg/ml nickle-chelate acceptor beads. ALPHA signal was detected on an Envision plate reader (Ex: 320 nm; Em: 570 nm; Ex time: 180 ms). […] All IC50 values represent geometric mean values of a minimum of four determinations.

The target in a further test is T2, BRD4-2 (Homo sapiens, UniProt O60885).
T2 construct: made in house; host or cells: Escherichia coli
As to the kind of experiment: HTRF (TR-FRET) assay, BRD4-2 binding to acetylated histone H4 peptide. As for the experimental part:
as §1

The mark [3] stands for this setting: 60 nM BRD4-1, 200 nM H4 peptide, 60 minutes at 25° C., geometric mean of a minimum of four determinations, read-out: HTRF BRD4-1 (IC50).
Setting [4] is: 15 nM BRD4-1, 200 nM H4 peptide, 60 minutes at 25° C., geometric mean of a minimum of four determinations, read-out: Alpha Assay (IC50).
Where [5] appears, read: 120 nM BRD4-2, 200 nM H4 peptide, 60 minutes at 25° C., geometric mean of a minimum of four determinations, read-out: HTRF BRD4-2 (IC50).

Like-named read-outs stand apart in the source and are kept apart here.

One may read the IC50 as the concentration at which inhibition is half-maximal. With `Cc1ccc2ncccc2c1-c1cc(-c2c(C)noc2C)cc2[nH]c(C(O)CCO)nc12` (stereo not shown) [Compound 1020-89, 1-(6-(3,5-dimethylisoxazol-4-yl)-4-(6-methylquinolin-5-yl)-1H-benzo[d]imidazol-2-yl)propane-1,3-diol], the IC50 on BRD4-1 [1] (setting [3]) was 379 nM; at BRD4-1 [2] (setting [4]), 130 nM; on BRD4-2 (setting [5]) it was 151 nM.

As for `CC/C=C(\CC)c1cc(-c2c(C)noc2C)cc2nc(C3CC3)[nH]c12` [Compound 1020-28, (E)-4-(2-Cyclopropyl-4-(hex-3-en-3-yl)-1H-benzo[d]imidazol-6-yl)-3,5-dimethylisoxazole], the IC50 was determined as 71.8 nM at BRD4-1 [1] (setting [3]), 18.1 nM at BRD4-1 [2] (setting [4]) and 65.5 nM on BRD4-2 (setting [5]).

On to `CCC(CC)c1cc(-c2c(C)noc2C)cc2[nH]c(C3CC3)nc12` [Compound 1020-120, 4-(2-Cyclopropyl-4-(pentan-3-yl)-1H-benzo[d]imidazol-6-yl)-3,5-dimethylisoxazole], for which the IC50 on BRD4-1 [1] was 88.5 nM; at BRD4-1 [2], 39.7 nM; on BRD4-2, 76.1 nM.

In the case of `Cc1ccnc(C)c1-c1cc(-c2c(C)noc2C)cc2[nH]cnc12` [Compound 1020-84, 4-(4-(2,4-Dimethylpyridin-3-yl)-1H-benzo[d]imidazol-6-yl)-3,5-dimethylisoxazole], the IC50 on BRD4-1 [1] (setting [3]) is 481 nM; at BRD4-1 [2] (setting [4]), 277 nM; at BRD4-2 (setting [5]) it was 234 nM.

Take `Cc1noc(C)c1-c1cc(N2C(=O)CCC2C)c2nc(C3CC3)[nH]c2c1` (stereo not shown) [Compound 1020-136, 1-(2-Cyclopropyl-6-(3,5-dimethylisoxazol-4-yl)-1H-benzo[d]imidazol-4-yl)-5-methylpyrrolidin-2-one]: the IC50 on BRD4-1 [1] (setting [3]) amounted to 823 nM; at BRD4-1 [2] (setting [4]), 513 nM; on BRD4-2 (setting [5]), 727 nM.

Take `Cc1nc2cc(-c3c(C)noc3C)cc(-c3c(C)n[nH]c3C)c2[nH]1` [Compound 1020-77, 4-(7-(3,5-Dimethyl-1H-pyrazol-4-yl)-2-methyl-1H-benzo[d]imidazol-5-yl)-3,5-dimethylisoxazole]: the IC50 was 244 nM on BRD4-1 [1] (setting [3]), 42.7 nM on BRD4-1 [2] (setting [4]) and 64.8 nM at BRD4-2 (setting [5]).

As to `Cc1noc(C)c1-c1cc(-c2cccnc2-c2ccccc2)c2nc(C3CC3)[nH]c2c1` [Compound 1020-19, 4-(2-Cyclopropyl-4-(2-phenylpyridin-3-yl)-1H-benzo[d]imidazol-6-yl)-3,5-dimethylisoxazole], the IC50 on BRD4-1 [1] (setting [3]) is 134 nM; on BRD4-1 [2] (setting [4]), 28 nM; at BRD4-2 (setting [5]), 172 nM.

`CCC1CCC(=O)N1c1cc(-c2c(C)noc2C)cc2[nH]c(C3CC3)nc12` (stereo not shown) [Compound 1020-137, 1-(2-Cyclopropyl-6-(3,5-dimethylisoxazol-4-yl)-1H-benzo[d]imidazol-4-yl)-5-ethylpyrrolidin-2-one]: the half-inhibitory concentration (IC50) on BRD4-1 [1] (setting [3]) worked out at 187 nM; on BRD4-1 [2] (setting [4]), 52.8 nM; at BRD4-2 (setting [5]), 399 nM.

As to `Cc1ccc2ncccc2c1-c1cc(-c2c(C)noc2C)cc2[nH]c(-c3cnn(C)c3)nc12` [Compound 1020-88, 3,5-Dimethyl-4-(2-(1-methyl-1H-pyrazol-4-yl)-4-(6-methylquinolin-5-yl)-1H-benzo[d]imidazol-6-yl)isoxazole], the IC50 came out at 104 nM at BRD4-1 [1] (setting [3]), 15.9 nM on BRD4-1 [2] (setting [4]) and 131 nM at BRD4-2 (setting [5]).

For the compound `Cc1noc(C)c1-c1cc(S(=O)(=O)NC2CCCC2)c2nc([S+](C)[O-])[nH]c2c1` (stereo not shown) [Compound 1020-5, N-Cyclopentyl-6-(3,5-dimethylisoxazol-4-yl)-2-(methylsulfinyl)-1H-benzo[d]imidazole-4-sulfonamide], the results for the IC50 at BRD4-1 [1] (setting [3]) and at BRD4-2 (setting [5]) were 616 nM and 357 nM, respectively.

Regarding `Cc1noc(C)c1-c1cc(NC2CCCC2)c2nc(C3CC3)[nH]c2c1` [Compound 1020-50, N-Cyclopentyl-2-cyclopropyl-6-(3,5-dimethylisoxazol-4-yl)-1H-benzo[d]imidazol-4-amine], the IC50 on BRD4-1 [1] (setting [3]) was 299 nM; at BRD4-1 [2] (setting [4]) it was 125 nM; on BRD4-2 (setting [5]), 318 nM.

Take `Cc1noc(C)c1-c1cc(C(O)C2CCCC2)c2nc(C3CC3)[nH]c2c1` (stereo not shown) [Compound 1020-121, Cyclopentyl(2-cyclopropyl-6-(3,5-dimethylisoxazol-4-yl)-1H-benzo[d]imidazol-4-yl)methanol]: the IC50 amounted to 95.2 nM on BRD4-1 [1] (setting [3]), 24.7 nM on BRD4-1 [2] (setting [4]) and 80.8 nM on BRD4-2 (setting [5]).

On to `Cc1noc(C)c1-c1cc(C(O)(c2ccccc2)c2ccccc2)c2nc(C3CC3)[nH]c2c1` [Compound 1020-102, (2-Cyclopropyl-6-(3,5-dimethylisoxazol-4-yl)-1H-benzo[d]imidazol-4-yl)diphenylmethanol], for which the IC50 on BRD4-1 [1] (setting [3]) is 101 nM; at BRD4-1 [2] (setting [4]), 14.3 nM; at BRD4-2 (setting [5]), 75.7 nM.

In the case of `Cc1ccnc(C)c1-c1cc(-c2c(C)noc2C)cc2nc(C3CC3)[nH]c12` [Compound 1020-57, 4-(2-Cyclopropyl-7-(2,4-dimethylpyridin-3-yl)-1H-benzo[d]imidazol-5-yl)-3,5-dimethylisoxazole], the 50% inhibitory concentration (IC50) on BRD4-1 [1] (setting [3]) worked out at 109 nM; at BRD4-1 [2] (setting [4]), 22.6 nM; at BRD4-2 (setting [5]), 54.4 nM.

With `Cc1ccc2ncccc2c1-c1cc(-c2c(C)noc2C)cc2[nH]c(C(F)(F)F)nc12` [Compound 1020-92, 3,5-Dimethyl-4-(4-(6-methylquinolin-5-yl)-2-(trifluoromethyl)-1H-benzo[d]imidazol-6-yl)isoxazole], the IC50 at BRD4-1 [1] (setting [3]) is 133 nM; at BRD4-1 [2] (setting [4]), 37.7 nM; at BRD4-2 (setting [5]) it was 102 nM.

Turning to `Cc1noc(C)c1-c1cc(S(=O)(=O)NC2CCCC2)c2nc(NCC(F)(F)F)[nH]c2c1` [Compound 1020-148, N-Cyclopentyl-6-(3,5-dimethylisoxazol-4-yl)-2-(2,2,2-trifluoroethylamino)-1H-benzo[d]imidazole-4-sulfonamide], the half-inhibitory concentration (IC50) at BRD4-1 [1] (setting [3]) was found to be 186 nM; at BRD4-2 (setting [5]), 180 nM.

Take `CCC(O)(CC)c1cc(-c2c(C)noc2C)cc2c1nc(C1CC1)n2C` [Compound 1020-132, 3-(2-Cyclopropyl-6-(3,5-dimethylisoxazol-4-yl)-1-methyl-1H-benzo[d]imidazol-4-yl)pentan-3-ol]: the IC50 at BRD4-1 [1] (setting [3]) came out at 610 nM; at BRD4-1 [2] (setting [4]), 573 nM; on BRD4-2 (setting [5]), 883 nM.

For `COc1nc2c(-c3c(C)ccc4ncccc34)cc(-c3c(C)noc3C)cc2[nH]1` [Compound 1020-90, 4-(2-methoxy-4-(6-methylquinolin-5-yl)-1H-benzo[d]imidazol-6-yl)-3,5-dimethylisoxazole], the IC50 on BRD4-1 [1] (setting [3]) amounted to 110 nM; at BRD4-1 [2] (setting [4]) it was 29.9 nM; at BRD4-2 (setting [5]), 121 nM.

As to `Cc1cnn(C)c1-c1cc(-c2c(C)noc2C)cc2nc(C3CC3)[nH]c12` [Compound 1020-12, 4-(2-Cyclopropyl-7-(1,4-dimethyl-1H-pyrazol-5-yl)-1H-benzo[d]imidazol-5-yl)-3,5-dimethylisoxazole], the IC50 on BRD4-1 [1] (setting [3]) was 138 nM; at BRD4-1 [2] (setting [4]) it was 46.2 nM; on BRD4-2 (setting [5]), 69.2 nM.

`CSc1nc2c(S(=O)(=O)NC3CCCC3)cc(-c3c(C)noc3C)cc2[nH]1` [Compound 1020-4, N-Cyclopentyl-6-(3,5-dimethylisoxazol-4-yl)-2-(methylthio)-1H-benzo[d]imidazole-4-sulfonamide]: the IC50 on BRD4-1 [1] (setting [3]) was 337 nM; on BRD4-2 (setting [5]), 230 nM.

As to `Cc1n[nH]c(C)c1-c1cc(-c2c(C)noc2C)cc2[nH]c(NC3CC3)nc12` [Compound 1020-81, N-Cyclopropyl-4-(3,5-dimethyl-1H-pyrazol-4-yl)-6-(3,5-dimethylisoxazol-4-yl)-1H-benzo[d]imidazol-2-amine], the IC50 came to 169 nM at BRD4-1 [1] (setting [3]), 50.7 nM on BRD4-1 [2] (setting [4]) and 119 nM on BRD4-2 (setting [5]).

Take `Cc1noc(C)c1-c1cc(S(=O)(=O)NC2CCCC2)c2nc(NCC3CC3)[nH]c2c1` [Compound 1020-1, N-Cyclopentyl-2-(cyclopropylmethylamino)-6-(3,5-dimethylisoxazol-4-yl)-1H-benzo[d]imidazole-4-sulfonamide]: the IC50 on BRD4-1 [1] (setting [3]) worked out at 201 nM; at BRD4-2 (setting [5]), 97.6 nM.

Turning to `Cc1noc(C)c1-c1cc(S(=O)(=O)NC2CCCC2)c2nc(Cc3ccccc3)[nH]c2c1` [Compound 1020-141, 2-Benzyl-N-cyclopentyl-6-(3,5-dimethylisoxazol-4-yl)-1H-benzo[d]imidazole-4-sulfonamide], the IC50 on BRD4-1 [1] (setting [3]) worked out at 704 nM; at BRD4-2 (setting [5]), 111 nM.
